Laboratory results taken from patent US6166290A, “Glutathione-S-conjugate transport in plants” (The Trustees of the University of Pennsylvania, priority 1997, dated 2000).
Where “and” joins values, the source holds several entries; their conditions need not be identical. Identical values can stand only once. Like-named read-outs stand apart in the source and are kept apart here.

Columns and labels:
[1] = tested on: vacuolar GS-X pump (vacuolar membrane vesicles, Z. mays roots); settings: Zea mays root; cited from earlier work
AtMRP1 = target: T1, AtMRP1 (Arabidopsis thaliana, UniProt Q9C8G9); assay: AtMRP1-dependent uptake by membrane vesicles from pYES3-AtMRP1-transformed DTY168 cells; assay type: biochemical
T1 construct: S. cerevisiae DTY168 (ycf1 null) vacuolar-enriched membrane vesicles
T1 sequence (Q9C8G9 whole entry): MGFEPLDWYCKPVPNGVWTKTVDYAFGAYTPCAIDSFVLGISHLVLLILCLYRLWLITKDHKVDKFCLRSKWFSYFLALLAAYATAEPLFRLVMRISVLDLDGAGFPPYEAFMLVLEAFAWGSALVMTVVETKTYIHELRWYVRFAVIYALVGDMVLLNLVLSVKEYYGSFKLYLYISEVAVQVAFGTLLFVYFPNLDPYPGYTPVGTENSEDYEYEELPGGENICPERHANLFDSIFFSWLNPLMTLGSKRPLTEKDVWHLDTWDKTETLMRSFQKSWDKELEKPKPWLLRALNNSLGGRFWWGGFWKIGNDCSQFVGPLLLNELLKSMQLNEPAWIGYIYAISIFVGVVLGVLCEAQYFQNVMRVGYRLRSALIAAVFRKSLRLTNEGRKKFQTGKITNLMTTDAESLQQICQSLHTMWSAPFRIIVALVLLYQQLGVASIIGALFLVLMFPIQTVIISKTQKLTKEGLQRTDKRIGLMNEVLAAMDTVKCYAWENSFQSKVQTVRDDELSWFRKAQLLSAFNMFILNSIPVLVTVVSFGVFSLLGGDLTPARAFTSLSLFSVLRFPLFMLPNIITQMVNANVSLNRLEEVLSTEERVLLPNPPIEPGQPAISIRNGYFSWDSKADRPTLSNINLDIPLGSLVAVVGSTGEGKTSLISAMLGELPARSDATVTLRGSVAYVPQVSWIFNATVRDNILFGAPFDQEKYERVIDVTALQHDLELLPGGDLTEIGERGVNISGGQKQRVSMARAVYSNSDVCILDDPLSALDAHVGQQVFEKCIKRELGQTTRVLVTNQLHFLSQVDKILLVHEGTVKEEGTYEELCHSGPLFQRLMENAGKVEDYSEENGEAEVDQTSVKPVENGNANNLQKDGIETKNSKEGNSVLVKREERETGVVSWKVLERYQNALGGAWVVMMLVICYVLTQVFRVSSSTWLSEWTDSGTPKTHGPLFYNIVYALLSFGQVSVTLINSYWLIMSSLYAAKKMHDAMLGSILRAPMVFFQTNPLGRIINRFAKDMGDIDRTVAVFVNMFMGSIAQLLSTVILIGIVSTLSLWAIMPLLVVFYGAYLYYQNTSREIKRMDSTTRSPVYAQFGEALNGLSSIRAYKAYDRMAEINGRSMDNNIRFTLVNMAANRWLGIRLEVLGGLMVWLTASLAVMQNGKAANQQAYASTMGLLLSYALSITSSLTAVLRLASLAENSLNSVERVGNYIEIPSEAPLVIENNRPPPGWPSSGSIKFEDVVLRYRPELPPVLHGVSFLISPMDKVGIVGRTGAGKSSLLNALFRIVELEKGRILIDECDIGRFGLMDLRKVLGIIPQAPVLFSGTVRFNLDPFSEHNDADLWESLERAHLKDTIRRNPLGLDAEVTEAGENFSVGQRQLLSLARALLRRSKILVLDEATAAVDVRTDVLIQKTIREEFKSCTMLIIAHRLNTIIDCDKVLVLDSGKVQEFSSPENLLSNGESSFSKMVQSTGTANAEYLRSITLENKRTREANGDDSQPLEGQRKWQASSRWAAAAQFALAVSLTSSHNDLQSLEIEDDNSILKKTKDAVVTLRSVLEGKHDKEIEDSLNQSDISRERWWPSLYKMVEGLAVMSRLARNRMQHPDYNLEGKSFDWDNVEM
Experimental: S. cerevisiae strain DTY168 (MATα his6, leu2-3, -112, ura3-52 ycf1::hisG) was transformed with pYES3-AtMRP1 or empty vector lacking the AtMRP1 insert (pYES3) by the LiOAc/PEG method (Giest et al., 1991, Yeast 7:253-263) and selected for uracil prototrophy by plating on AHC medium containing tryptophan (Kim et al., 1994, supra).
For the preparation of membrane vesicles, 15 ml volumes of stationary phase cultures of the transformants were diluted into 1 L of fresh AHC medium and grown to an OD600 nm of about 1.2. Membrane vesicles were purified as described herein and in Kim et al. (1995, supra).
[…] μl reaction volumes containing 3 mM ATP, 3 mM MgSO4, 5 μM gramicidin-D, 10 mM creatine phosphate, 16 units/ml creatine kinase, 50 mM KCl, 1 mg/ml BSA, 400 mM sorbitol, 25 mM Tris-Mes ([…]).
(§1) Cells were grown and vacuolar membrane-enriched vesicles were prepared as described (Kim et al., 1995, J Biol. Chem. 270:2630-2635-). […] Uptake was terminated by the addition of 1 ml ice-cold wash medium (400 mM sorbitol/3 mM Tris-Mes, pH 8.0) and vacuum filtration of the suspension through prewetted Millipore HA cellulose nitrate filters (pore size 0.45 μm). The filters were rinsed twice with wash medium, and the retained radioactivity was determined by liquid scintillation counting. Nonenergized uptake was estimated by the same procedure except that ATP was omitted from the uptake medium.

AtMRP2 = target: T2, AtMRP2 (Arabidopsis thaliana, UniProt Q42093); assay: AtMRP2-dependent uptake by membrane vesicles from pYES3-AtMRP2-transformed DTY168 cells; assay type: biochemical
T2 construct: S. cerevisiae DTY168 (ycf1 null) vacuolar-enriched membrane vesicles
T2 sequence (Q42093 whole entry): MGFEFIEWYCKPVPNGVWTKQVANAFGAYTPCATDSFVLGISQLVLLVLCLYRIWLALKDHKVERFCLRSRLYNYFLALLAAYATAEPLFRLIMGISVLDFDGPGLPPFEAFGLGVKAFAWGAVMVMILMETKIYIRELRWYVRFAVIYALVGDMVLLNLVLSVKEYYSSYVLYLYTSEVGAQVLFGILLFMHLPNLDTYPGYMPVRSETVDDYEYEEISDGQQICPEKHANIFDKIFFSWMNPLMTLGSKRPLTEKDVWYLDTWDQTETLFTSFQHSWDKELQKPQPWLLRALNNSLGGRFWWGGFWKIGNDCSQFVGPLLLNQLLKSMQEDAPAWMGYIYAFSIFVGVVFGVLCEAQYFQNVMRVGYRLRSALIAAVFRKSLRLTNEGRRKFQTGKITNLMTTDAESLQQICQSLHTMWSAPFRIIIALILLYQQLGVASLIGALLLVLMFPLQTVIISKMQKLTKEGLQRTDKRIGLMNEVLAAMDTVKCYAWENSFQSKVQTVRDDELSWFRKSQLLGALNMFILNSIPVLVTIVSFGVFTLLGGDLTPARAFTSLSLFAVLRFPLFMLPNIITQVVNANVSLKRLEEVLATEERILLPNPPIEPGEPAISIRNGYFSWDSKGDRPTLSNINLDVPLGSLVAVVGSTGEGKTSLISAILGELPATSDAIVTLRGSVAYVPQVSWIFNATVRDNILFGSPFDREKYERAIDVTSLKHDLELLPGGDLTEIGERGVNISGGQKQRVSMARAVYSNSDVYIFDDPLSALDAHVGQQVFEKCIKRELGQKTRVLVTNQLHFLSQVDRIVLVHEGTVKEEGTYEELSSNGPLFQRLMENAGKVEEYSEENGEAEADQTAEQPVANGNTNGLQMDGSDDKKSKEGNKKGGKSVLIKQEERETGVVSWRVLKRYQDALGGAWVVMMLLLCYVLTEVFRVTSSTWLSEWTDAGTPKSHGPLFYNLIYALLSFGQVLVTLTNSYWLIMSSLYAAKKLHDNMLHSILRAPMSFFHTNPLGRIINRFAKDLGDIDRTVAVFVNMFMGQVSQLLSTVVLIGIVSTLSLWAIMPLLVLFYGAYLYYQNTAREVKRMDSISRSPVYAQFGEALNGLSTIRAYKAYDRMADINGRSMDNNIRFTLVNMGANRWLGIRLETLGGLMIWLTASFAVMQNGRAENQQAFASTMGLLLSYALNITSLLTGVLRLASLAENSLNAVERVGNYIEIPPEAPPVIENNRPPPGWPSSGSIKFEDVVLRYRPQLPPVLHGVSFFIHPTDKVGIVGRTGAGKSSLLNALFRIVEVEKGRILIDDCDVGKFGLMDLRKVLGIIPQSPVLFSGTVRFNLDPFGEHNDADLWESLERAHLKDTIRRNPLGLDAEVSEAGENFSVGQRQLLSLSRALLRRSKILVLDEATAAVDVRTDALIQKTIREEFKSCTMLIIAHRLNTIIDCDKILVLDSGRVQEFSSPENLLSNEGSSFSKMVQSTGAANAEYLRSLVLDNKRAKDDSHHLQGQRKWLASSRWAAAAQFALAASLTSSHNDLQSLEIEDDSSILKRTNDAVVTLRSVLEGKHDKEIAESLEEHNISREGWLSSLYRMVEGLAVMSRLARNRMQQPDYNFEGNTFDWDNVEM
Experimental: as §1
Membranes from DTY168/pYES3-AtMRP2 cells were incubated for 10 minutes in standard uptake medium containing 61.3 μM [^3 H]DNP-GS after which time 200 mM glucose and 50 units/ml hexokinase (Type F-300 from baker's yeast) were added. […] Control samples were treated identically except that no additions were made after the initial 10 minute incubation period.

[2] = tested on: endogenous GS-X pump of plant vacuolar membranes; settings: read-out: Km for transport by endogenous plant vacuolar GS-X pump; cited from earlier work
[3] = tested on: vacuolar membrane vesicles purified from DTY167 cells (ycf1Δ mutant); assay type: biochemical, Saccharomyces cerevisiae
Method in brief: (§2)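 ATP-dependent [3H]DNP-GS (66.2 μM) transport measured by filtration and scintillation counting of Ficoll-purified yeast vacuolar vesicles (DTY165 wild type; DTY167 ycf1Δ), 1–60 min at 25 °C in sorbitol/Tris-Mes pH 8.0 with 3 mM ATP, 3 mM MgSO4 and gramicidin-D. Nonenergized uptake without ATP/Mg2+.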

[4] = tested on: vacuolar GS-X pump (vacuolar membrane vesicles, Z. mays roots); assay: GS-conjugate uptake by vacuolar membrane vesicles from roots of Z. mays; assay type: biochemical, Zea mays
[5] = target: T3, YCF1 (vacuolar membrane vesicles purified from DTY165 cells) (Saccharomyces cerevisiae, UniProt P39109); assay: [3H]DNP-GS uptake by vacuolar membrane vesicles purified from DTY165 cells; assay type: biochemical
T3 construct: endogenous in cells; host or cells: S. cerevisiae DTY165 (wild type YCF1), vacuolar membrane vesicles
T3 sequence (P39109 whole entry): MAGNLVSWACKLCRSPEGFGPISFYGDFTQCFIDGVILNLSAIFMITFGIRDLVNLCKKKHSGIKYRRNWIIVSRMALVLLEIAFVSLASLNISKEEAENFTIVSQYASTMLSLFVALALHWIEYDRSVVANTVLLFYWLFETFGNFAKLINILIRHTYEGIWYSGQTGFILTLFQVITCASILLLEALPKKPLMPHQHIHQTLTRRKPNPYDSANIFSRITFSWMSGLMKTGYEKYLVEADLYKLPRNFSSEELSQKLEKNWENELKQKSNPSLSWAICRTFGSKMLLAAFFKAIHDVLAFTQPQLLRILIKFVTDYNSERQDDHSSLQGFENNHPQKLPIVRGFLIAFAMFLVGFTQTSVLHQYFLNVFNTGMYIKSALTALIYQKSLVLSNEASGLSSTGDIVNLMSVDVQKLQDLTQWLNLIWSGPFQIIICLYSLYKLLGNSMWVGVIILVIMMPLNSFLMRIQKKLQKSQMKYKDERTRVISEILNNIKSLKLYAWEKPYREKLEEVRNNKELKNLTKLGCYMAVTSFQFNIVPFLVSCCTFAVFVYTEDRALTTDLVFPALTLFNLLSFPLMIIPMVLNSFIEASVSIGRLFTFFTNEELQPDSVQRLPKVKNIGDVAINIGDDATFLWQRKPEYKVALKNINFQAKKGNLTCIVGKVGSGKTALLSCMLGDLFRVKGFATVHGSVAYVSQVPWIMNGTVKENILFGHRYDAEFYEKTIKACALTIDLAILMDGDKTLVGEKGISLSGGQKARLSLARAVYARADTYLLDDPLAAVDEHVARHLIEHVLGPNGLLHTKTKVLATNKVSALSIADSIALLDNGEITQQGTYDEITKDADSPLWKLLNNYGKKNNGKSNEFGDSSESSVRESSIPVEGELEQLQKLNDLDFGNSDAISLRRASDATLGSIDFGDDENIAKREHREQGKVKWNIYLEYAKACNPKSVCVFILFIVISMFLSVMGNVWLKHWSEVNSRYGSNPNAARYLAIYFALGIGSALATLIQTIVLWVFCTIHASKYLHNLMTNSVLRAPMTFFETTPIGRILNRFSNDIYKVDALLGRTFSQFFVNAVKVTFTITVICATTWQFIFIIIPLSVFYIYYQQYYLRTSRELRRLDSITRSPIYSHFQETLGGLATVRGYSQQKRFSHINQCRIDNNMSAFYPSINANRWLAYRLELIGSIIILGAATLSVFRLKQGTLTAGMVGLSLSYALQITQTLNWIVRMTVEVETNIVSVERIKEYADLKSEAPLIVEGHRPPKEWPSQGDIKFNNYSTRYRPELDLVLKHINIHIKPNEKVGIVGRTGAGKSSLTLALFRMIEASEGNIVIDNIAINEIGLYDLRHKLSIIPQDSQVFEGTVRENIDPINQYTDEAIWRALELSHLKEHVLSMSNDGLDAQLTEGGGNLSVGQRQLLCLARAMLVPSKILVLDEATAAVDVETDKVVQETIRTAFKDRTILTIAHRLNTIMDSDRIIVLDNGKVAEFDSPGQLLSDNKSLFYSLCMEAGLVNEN
Method in brief: as §2

[6] = MgATP-dependent, uncoupler-insensitive
[7] = Table 1: 66.2 μM DNP-GS, 3 mM MgATP, no addition
[8] = Table 2: 5 μM gramicidin D, no compound

## N[C@@H](CCC(=O)N[C@@H](CSc1ccc([N+](=O)[O-])cc1[N+](=O)[O-])C(=O)NCC(=O)O)C(=O)O [DNP-GS, S-(2,4-dinitrophenyl)glutathione]
[1]
  rate of MgATP-dependent, uncoupler-insensitive DNP-GS uptake: 2.1 nmol/mg/20 minutes
AtMRP1
  increase in DNP-GS uptake following introduction of plasmid borne AtMRP1: ca. 4 nmol/mg/20 minutes
AtMRP1; 61.3 μM DNP-GS
  initial rate of DNP-GS uptake: 0.4 nmol/mg/min
AtMRP1; [6]
  Vmax for AtMRP1-dependent uptake: 6.0±1.7 nmol/mg/10 min and 8.2±1.6 nmol/mg/10 min
AtMRP2; 15 μM Bn-NCC-1
  Vmax for AtMRP2-dependent [3H]DNP-GS uptake in the presence of Bn-NCC-1: 18.3±1.6 nmol/mg/10/min
AtMRP2; [6]
  Vmax for AtMRP2-dependent uptake: 16.3±3.1 nmol/mg/10 min
[2]
  Km: 81.3 ± 41.8 µM
[3]; 3 mM MgATP, 66.2 μM DNP-GS
  initial rate of DNP-GS uptake: 1.7 nmol/mg/min
[3]; [7]
  DNP-GS uptake, control: 15.4 ± 0.4 nmol/mg/10 minutes
[3]; [8]
  MgATP-dependent, uncoupler-insensitive DNP-GS uptake, control: 6.5 ± 0.8 nmol/mg/10 minutes
[4]; read-out: I50 for uptake of ABA-GS
  IC50: 232 µM
[4]; read-out: I50 for uptake of C3G-GS
  IC50: 112 µM
[4]; read-out: I50 for uptake of IAA-GS
  IC50: 110 µM
[5]; 3 mM MgATP, 5 μM gramicidin D
  Vmax(DNP-GS) of MgATP-dependent uncoupler-insensitive uptake: 51.0±16.3 nmol/mg/10 minutes and 51.0±6.3 nmol/mg/10 minutes
[5]; 3 mM MgATP, 66.2 μM DNP-GS
  initial rate of DNP-GS uptake: 12.2 nmol/mg/min
[5]; [7]
  DNP-GS uptake, control: 77.7 ± 1.0 nmol/mg/10 minutes
[5]; [8]
  MgATP-dependent, uncoupler-insensitive DNP-GS uptake, control: 47.9 ± 2.5 nmol/mg/10 minutes
[5]; Table 4, vacuolar membrane vesicles from DTY165 cells
  MgATP-dependent, uncoupler-insensitive DNP-GS uptake, vacuolar membrane: 69.9 ± 1.0 nmol/mg/10 min
[5]; crude microsomes from DTY165 cells
  MgATP-dependent, uncoupler-insensitive DNP-GS uptake, crude microsomes: 2.5 ± 0.3 nmol/mg/10 min
